system: HEK293Tmtkeima cells; experiment: Functional test of mitophagy inducer (mtKeima imaging, with or without CCCP-induced mitochondrial damage); format: cell-based, Human; details: HEK293Tmtkeima cells, 5 uM or 10 uM CCCP to induce mitochondrial damage; number of cells in which damaged mitophagy occurs/number of all cells
Experimental: Group 1: Human embryonic kidney transformed cells HEK293Tmtkeima cells were treated with 0 μM, 1.25 μM, 2.5 μM, 5 μM and 10 μM CCCP respectively, and seeded in a 96-well black ELISA PLATE at 1.5*10^5 cells/ml, 100 μL per well. Compound I-2 was added after 25 hours, and 3 replicates were set. At 37° C., under 5% CO2 incubation conditions, photographs were taken every few hours with biotek cytation 5 for a total of 20 hours, with the bright field as the focusing channel, and 9 images were taken per hole, and the images were processed using the instrument software.
Group 2: Human embryonic kidney transformed cells HEK293Tmtkeima cells were seeded in a 96-well black ELISA PLATE at […], 100 μL per well; compounds I-1˜I-44 and UMI-77 were added after 25 hours, set up 3 replicates; under 37° C., 5% CO2 culture conditions, use biotek every few hours Cytation 5 was used to take photos, a total of 20 hours of shooting. In another group of cells under the same conditions, human embryonic kidney-transformed cells HEK293Tmtkeima cells were seeded in a 96-well black enzyme plate at 1.5*10^5 cells/ml, 100 μl per well; after 24 hours, 5 uM or 10 uM CCCP (Carbonyl cyanide) was first added 3-chlorophenylhydrazone) to induce mitochondrial damage, then add I-1˜I-44, UMI-77 1 hour later, set up 3 repetitions; under 37° C., 5% CO2 culture conditions, pictures were taken every few hours with biotek cytation 5, photographs were taken for 20 hours. Another group of human embryonic kidney transformed cells HEK293Tmtkeima cells was seeded at 1.5*10^5 cells/ml in 96-well black ELISA PLATE at 100 μl per well under the same conditions, 24 hours later 5 uM or 10 uM CCCP (Carbonyl cyanide 3-chlorophenylhydrazone) was first added to induce mitochondrial damage, after 1 hour then add I-1 to I-44, UMI-77 and set up 3 replicates. At 37° C., under 5% CO2 incubation conditions, pictures were taken every few hours with biotek cytation 5, photographs were taken for 20 hours, with the bright field as the focusing channel for both groups, and 9 images were taken per hole, and the images were processed using the instrument software.

Row | SMILES | The ability of selection to induce autophagy in damaged mitochondria
1 | CN=S(=O)(Nc1cc([S+]([O-])CC(=O)O)c(O)c2ccccc12)c1ccc(Br)cc1 (stereo not drawn) [Compound I-25-1] | +++ (strong ability to selectively induce autophagy in damaged mitochondria (number of cells in which damaged mitophagy occurs/number of all cells >0.30))
2 | O=C(O)C[S+]([O-])c1cc(N(C2CC2)S(=O)(=O)c2ccc(Br)cc2)c2ccccc2c1O (stereo not drawn) [Compound I-3] | ++ (moderate ability to selectively induce autophagy in damaged mitochondria (number of cells in which damaged mitophagy occurs/number of all cells in the range of 0.2 to 0.3))
3 | N#Cc1ccc2c(O)c([S+]([O-])CC(=O)O)cc(NS(=O)(=O)c3ccc(Br)cc3)c2c1 (stereo not drawn) [Compound I-31] | + (weak ability to selectively induce autophagy in damaged mitochondria (number of cells in which damaged mitophagy occurs/number of all cells in the range of 0.1 to 0.2))
4 | O=C(O)C[S+]([O-])c1cc(NS(=O)(=O)c2cc3ccccc3s2)c2ccccc2c1O (stereo not drawn) [Compound I-19-1] | ++ (moderate ability to selectively induce autophagy in damaged mitochondria (number of cells in which damaged mitophagy occurs/number of all cells in the range of 0.2 to 0.3))
5 | O=C(O)C[S+]([O-])c1cc(NS(=O)(=O)c2ccc(OC(F)(F)F)cc2)c2ccccc2c1O (stereo not drawn) [Compound I-21-1] | +++ (strong ability to selectively induce autophagy in damaged mitochondria (number of cells in which damaged mitophagy occurs/number of all cells >0.30))
6 | O=S(=O)(Nc1cc([S+]([O-])Cc2nnc[nH]2)c(O)c2ccccc12)c1ccc(Br)cc1 (stereo not drawn) [Compound I-8] | +++ (strong ability to selectively induce autophagy in damaged mitochondria (number of cells in which damaged mitophagy occurs/number of all cells >0.30))
7 | O=C(O)CS(=O)(=O)c1cc(NS(=O)(=O)c2ccc(C(F)(F)F)cc2)c2ccccc2c1O [Compound I-14-2] | ++ (moderate ability to selectively induce autophagy in damaged mitochondria (number of cells in which damaged mitophagy occurs/number of all cells in the range of 0.2 to 0.3))
8 | CN=S(=O)(c1ccc(Br)cc1)N(C)c1cc([S+]([O-])CC(=O)O)c(O)c2ccccc12 (stereo not drawn) [Compound I-26] | ++ (moderate ability to selectively induce autophagy in damaged mitochondria (number of cells in which damaged mitophagy occurs/number of all cells in the range of 0.2 to 0.3))
9 | O=C(O)C[S+]([O-])c1cc(NS(=O)(=O)c2cccc(F)c2)c2ccccc2c1O (stereo not drawn) [Compound I-24-1] | + (weak ability to selectively induce autophagy in damaged mitochondria (number of cells in which damaged mitophagy occurs/number of all cells in the range of 0.1 to 0.2))
10 | O=S(=O)(Cc1nn[nH]n1)c1cc(NS(=O)(=O)c2ccc(Br)cc2)c2ccccc2c1O [Compound I-7-2] | + (weak ability to selectively induce autophagy in damaged mitochondria (number of cells in which damaged mitophagy occurs/number of all cells in the range of 0.1 to 0.2))
11 | O=C(O)C[S+]([O-])c1cc(NS(=O)(=O)c2ccc(Oc3ccccc3)cc2)c2ccccc2c1O (stereo not drawn) [Compound I-16-1] | ++ (moderate ability to selectively induce autophagy in damaged mitochondria (number of cells in which damaged mitophagy occurs/number of all cells in the range of 0.2 to 0.3))
12 | NC(=O)C[S+]([O-])c1cc(NS(=O)(=O)c2ccc(Br)cc2)c2ccccc2c1O (stereo not drawn) [Compound I-5] | + (weak ability to selectively induce autophagy in damaged mitochondria (number of cells in which damaged mitophagy occurs/number of all cells in the range of 0.1 to 0.2))
13 | O=C(O)CS(=O)(=O)c1cc(NS(=O)(=O)c2cccc(-c3ccccc3)c2)c2ccccc2c1O [Compound I-23-2] | ++ (moderate ability to selectively induce autophagy in damaged mitochondria (number of cells in which damaged mitophagy occurs/number of all cells in the range of 0.2 to 0.3))
14 | O=C(O)CS(=O)(=O)c1cc(NS(=O)(=O)c2ccc(Br)cc2)c2ccccc2c1O [Compound I-42] | + (weak ability to selectively induce autophagy in damaged mitochondria (number of cells in which damaged mitophagy occurs/number of all cells in the range of 0.1 to 0.2))
15 | O=C(O)C[S+]([O-])c1cc(N2CCN=S2(=O)c2ccc(Br)cc2)c2ccccc2c1O (stereo not drawn) [Compound I-27] | ++ (moderate ability to selectively induce autophagy in damaged mitochondria (number of cells in which damaged mitophagy occurs/number of all cells in the range of 0.2 to 0.3))
16 | Cc1noc(C)c1S(=O)(=O)Nc1cc([S+]([O-])CC(=O)O)c(O)c2ccccc12 (stereo not drawn) [Compound I-37] | ++ (moderate ability to selectively induce autophagy in damaged mitochondria (number of cells in which damaged mitophagy occurs/number of all cells in the range of 0.2 to 0.3))
17 | O=C(O)C[S+]([O-])c1cc(NS(=O)(=O)c2ccc(C3CC3)cc2)c2ccccc2c1O (stereo not drawn) [Compound I-20-1] | ++ (moderate ability to selectively induce autophagy in damaged mitochondria (number of cells in which damaged mitophagy occurs/number of all cells in the range of 0.2 to 0.3))
18 | Cn1cc(S(=O)(=O)Nc2cc([S+]([O-])CC(=O)CO)c(O)c3ccccc23)cn1 (stereo not drawn) [Compound I-36] | ++ (moderate ability to selectively induce autophagy in damaged mitochondria (number of cells in which damaged mitophagy occurs/number of all cells in the range of 0.2 to 0.3))

Reference: patent US12151999B2, “Small molecule compounds having naphthylamine structure and application thereof” (Hangzhou PhecdaMed Co., Ltd., priority 2021, dated 2024)
